Reference: PMC3399817 (PLoS ONE, 2012)

Tests used:
Test in all cases: KINOMEscan
Assay type in all cases: binding
PRKD3 = biological target: T1, PRKD3 (Homo sapiens, UniProt O94806); details: PRKD3, 1 uM
T1 construct: purchased Ambit KINOMEscan (DiscoverX)
Procedure, shortened: (§1)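 A binding-competition profile was run with every compound fixed at 1 μM; hits were kinases showing inhibited substrate binding.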

PRKR = biological target: T2, PRKR (Homo sapiens, UniProt P19525); details: 1 uM
T2 construct: purchased Ambit KINOMEscan (DiscoverX)
Procedure, shortened: as §1

MST3 = biological target: T3, MST3 (Homo sapiens, UniProt Q9Y6E0); details: MST3, 1 uM
T3 construct: purchased Ambit KINOMEscan (DiscoverX)
Procedure, shortened: as §1

MRCKA = biological target: T4, MRCKA (Homo sapiens, UniProt Q5VT25); details: 1 uM
T4 construct: purchased Ambit KINOMEscan (DiscoverX)
Procedure, shortened: as §1

KIT = biological target: T5, KIT (Homo sapiens, UniProt P10721); details: 1 uM
T5 construct: purchased Ambit KINOMEscan (DiscoverX)
Procedure, shortened: as §1

MET = biological target: T6, MET (Homo sapiens, UniProt P08581); details: 1 uM
T6 construct: purchased Ambit KINOMEscan (DiscoverX)
Procedure, shortened: as §1

PCTK1 = biological target: T7, PCTK1 (Homo sapiens, UniProt Q00536); details: PCTK1, 1 uM
T7 construct: purchased Ambit KINOMEscan (DiscoverX)
Procedure, shortened: as §1

DAPK3 = biological target: T8, DAPK3 (Homo sapiens, UniProt O43293); details: DAPK3, 1 uM
T8 construct: purchased Ambit KINOMEscan (DiscoverX)
Procedure, shortened: as §1

CAMK1D = biological target: T9, CAMK1D (Homo sapiens, UniProt Q8IU85); details: 1 uM
T9 construct: purchased Ambit KINOMEscan (DiscoverX)
T9 sequence (Q8IU85 whole entry): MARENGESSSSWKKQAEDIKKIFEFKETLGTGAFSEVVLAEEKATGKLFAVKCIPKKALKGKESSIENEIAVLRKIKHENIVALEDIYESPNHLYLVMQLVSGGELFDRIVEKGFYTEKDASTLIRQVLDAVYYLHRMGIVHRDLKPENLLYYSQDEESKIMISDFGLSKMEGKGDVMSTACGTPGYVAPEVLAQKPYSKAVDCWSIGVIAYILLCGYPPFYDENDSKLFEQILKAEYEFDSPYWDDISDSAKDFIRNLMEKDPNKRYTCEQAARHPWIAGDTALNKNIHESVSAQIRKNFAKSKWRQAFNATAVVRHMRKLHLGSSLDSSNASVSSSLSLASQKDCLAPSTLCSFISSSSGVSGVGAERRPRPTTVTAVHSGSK
Procedure, shortened: as §1

SLK = biological target: T10, SLK (Homo sapiens, UniProt Q9H2G2); details: 1 uM
T10 construct: purchased Ambit KINOMEscan (DiscoverX)
T10 sequence (Q9H2G2 whole entry): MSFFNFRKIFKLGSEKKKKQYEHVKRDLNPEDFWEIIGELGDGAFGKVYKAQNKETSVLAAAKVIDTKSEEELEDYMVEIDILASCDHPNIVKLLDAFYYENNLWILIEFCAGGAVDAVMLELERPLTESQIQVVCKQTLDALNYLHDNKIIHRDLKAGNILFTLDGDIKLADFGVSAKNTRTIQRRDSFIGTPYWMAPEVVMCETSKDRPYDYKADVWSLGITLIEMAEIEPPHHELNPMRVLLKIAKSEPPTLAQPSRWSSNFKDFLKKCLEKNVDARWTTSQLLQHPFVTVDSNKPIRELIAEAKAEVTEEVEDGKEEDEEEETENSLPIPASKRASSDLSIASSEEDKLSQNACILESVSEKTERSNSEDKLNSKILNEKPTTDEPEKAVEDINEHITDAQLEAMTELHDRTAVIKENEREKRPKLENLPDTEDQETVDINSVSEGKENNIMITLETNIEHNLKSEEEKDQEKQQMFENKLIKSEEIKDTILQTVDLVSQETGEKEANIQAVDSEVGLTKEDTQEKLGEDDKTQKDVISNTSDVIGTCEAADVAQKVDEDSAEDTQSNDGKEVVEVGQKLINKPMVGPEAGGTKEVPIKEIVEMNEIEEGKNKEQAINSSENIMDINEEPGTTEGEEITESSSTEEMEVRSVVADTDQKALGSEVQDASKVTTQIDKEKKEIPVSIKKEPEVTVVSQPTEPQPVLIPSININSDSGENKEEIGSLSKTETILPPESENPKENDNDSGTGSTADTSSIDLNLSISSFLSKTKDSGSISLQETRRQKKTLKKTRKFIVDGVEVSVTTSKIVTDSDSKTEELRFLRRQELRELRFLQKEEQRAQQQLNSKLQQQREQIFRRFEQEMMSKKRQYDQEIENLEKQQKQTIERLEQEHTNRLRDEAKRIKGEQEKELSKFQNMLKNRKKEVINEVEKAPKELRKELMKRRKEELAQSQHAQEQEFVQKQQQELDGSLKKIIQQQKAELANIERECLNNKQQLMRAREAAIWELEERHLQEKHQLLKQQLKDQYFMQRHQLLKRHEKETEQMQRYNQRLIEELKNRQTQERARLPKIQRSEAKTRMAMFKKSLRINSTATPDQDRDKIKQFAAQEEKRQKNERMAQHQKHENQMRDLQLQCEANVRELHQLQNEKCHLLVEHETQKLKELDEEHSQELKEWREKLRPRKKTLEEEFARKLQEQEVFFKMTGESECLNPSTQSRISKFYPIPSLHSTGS
Procedure, shortened: as §1

CIT = biological target: T11, CIT (Homo sapiens, UniProt O14578); details: 1 uM
T11 construct: purchased Ambit KINOMEscan (DiscoverX)
Procedure, shortened: as §1

CAMKK1 = biological target: T12, CAMKK1 (Homo sapiens, UniProt Q8N5S9); details: CAMKK1, 1 uM
T12 construct: purchased Ambit KINOMEscan (DiscoverX)
Procedure, shortened: as §1

PIK3CA(E542K) = biological target: T13, PIK3CA(E542K) (Homo sapiens, UniProt P42336, E542K); details: 1 uM
T13 construct: purchased Ambit KINOMEscan (DiscoverX)
Procedure, shortened: as §1

TEC = biological target: T14, TEC (Homo sapiens, UniProt P42680); details: 1 uM
T14 construct: purchased Ambit KINOMEscan (DiscoverX)
Procedure, shortened: as §1

PKAC-beta = biological target: T15, PKAC-beta (Homo sapiens, UniProt P22694); details: 1 uM
T15 construct: purchased Ambit KINOMEscan (DiscoverX)
Procedure, shortened: as §1

HUNK = biological target: T16, HUNK (Homo sapiens, UniProt P57058); details: 1 uM
T16 construct: purchased Ambit KINOMEscan (DiscoverX)
Procedure, shortened: as §1

ALK = biological target: T17, ALK (Homo sapiens, UniProt Q9UM73); details: 1 uM
T17 construct: purchased Ambit KINOMEscan (DiscoverX)
Procedure, shortened: as §1

EPHB1 = biological target: T18, EPHB1 (Homo sapiens, UniProt P54762); details: EPHB1, 1 uM
T18 construct: purchased Ambit KINOMEscan (DiscoverX)
Procedure, shortened: as §1

SRPK2 = biological target: T19, SRPK2 (Homo sapiens, UniProt P78362); details: SRPK2, 1 uM
T19 construct: purchased Ambit KINOMEscan (DiscoverX)
Procedure, shortened: as §1

STK35 = biological target: T20, STK35 (Homo sapiens, UniProt Q8TDR2); details: STK35, 1 uM
T20 construct: purchased Ambit KINOMEscan (DiscoverX)
Procedure, shortened: as §1

CSNK1G2 = biological target: T21, CSNK1G2 (Homo sapiens, UniProt P78368); details: CSNK1G2, 1 uM
T21 construct: purchased Ambit KINOMEscan (DiscoverX)
Procedure, shortened: as §1

TAOK1 = biological target: T22, TAOK1 (Homo sapiens, UniProt Q7L7X3); details: TAOK1, 1 uM
T22 construct: purchased Ambit KINOMEscan (DiscoverX)
Procedure, shortened: as §1

ERK2 = biological target: T23, ERK2 (Homo sapiens, UniProt P28482); details: ERK2, 1 uM
T23 construct: purchased Ambit KINOMEscan (DiscoverX)
Procedure, shortened: as §1

ACVR2B = biological target: T24, ACVR2B (Homo sapiens, UniProt Q13705); details: 1 uM
T24 construct: purchased Ambit KINOMEscan (DiscoverX)
Procedure, shortened: as §1

RIPK2 = biological target: T25, RIPK2 (Homo sapiens, UniProt O43353); details: RIPK2, 1 uM
T25 construct: purchased Ambit KINOMEscan (DiscoverX)
Procedure, shortened: as §1

AURKB = biological target: T26, AURKB (Homo sapiens, UniProt Q96GD4); details: 1 uM
T26 construct: purchased Ambit KINOMEscan (DiscoverX)
Procedure, shortened: as §1

ARK5 = biological target: T27, ARK5 (Homo sapiens, UniProt O60285); details: ARK5, 1 uM
T27 construct: purchased Ambit KINOMEscan (DiscoverX)
Procedure, shortened: as §1

HIPK2 = biological target: T28, HIPK2 (Homo sapiens, UniProt Q9H2X6); details: for % binding compared to no inhibitor control: HIPK2, 1 uM
T28 construct: purchased Ambit KINOMEscan (DiscoverX)
T28 sequence (Q9H2X6 whole entry): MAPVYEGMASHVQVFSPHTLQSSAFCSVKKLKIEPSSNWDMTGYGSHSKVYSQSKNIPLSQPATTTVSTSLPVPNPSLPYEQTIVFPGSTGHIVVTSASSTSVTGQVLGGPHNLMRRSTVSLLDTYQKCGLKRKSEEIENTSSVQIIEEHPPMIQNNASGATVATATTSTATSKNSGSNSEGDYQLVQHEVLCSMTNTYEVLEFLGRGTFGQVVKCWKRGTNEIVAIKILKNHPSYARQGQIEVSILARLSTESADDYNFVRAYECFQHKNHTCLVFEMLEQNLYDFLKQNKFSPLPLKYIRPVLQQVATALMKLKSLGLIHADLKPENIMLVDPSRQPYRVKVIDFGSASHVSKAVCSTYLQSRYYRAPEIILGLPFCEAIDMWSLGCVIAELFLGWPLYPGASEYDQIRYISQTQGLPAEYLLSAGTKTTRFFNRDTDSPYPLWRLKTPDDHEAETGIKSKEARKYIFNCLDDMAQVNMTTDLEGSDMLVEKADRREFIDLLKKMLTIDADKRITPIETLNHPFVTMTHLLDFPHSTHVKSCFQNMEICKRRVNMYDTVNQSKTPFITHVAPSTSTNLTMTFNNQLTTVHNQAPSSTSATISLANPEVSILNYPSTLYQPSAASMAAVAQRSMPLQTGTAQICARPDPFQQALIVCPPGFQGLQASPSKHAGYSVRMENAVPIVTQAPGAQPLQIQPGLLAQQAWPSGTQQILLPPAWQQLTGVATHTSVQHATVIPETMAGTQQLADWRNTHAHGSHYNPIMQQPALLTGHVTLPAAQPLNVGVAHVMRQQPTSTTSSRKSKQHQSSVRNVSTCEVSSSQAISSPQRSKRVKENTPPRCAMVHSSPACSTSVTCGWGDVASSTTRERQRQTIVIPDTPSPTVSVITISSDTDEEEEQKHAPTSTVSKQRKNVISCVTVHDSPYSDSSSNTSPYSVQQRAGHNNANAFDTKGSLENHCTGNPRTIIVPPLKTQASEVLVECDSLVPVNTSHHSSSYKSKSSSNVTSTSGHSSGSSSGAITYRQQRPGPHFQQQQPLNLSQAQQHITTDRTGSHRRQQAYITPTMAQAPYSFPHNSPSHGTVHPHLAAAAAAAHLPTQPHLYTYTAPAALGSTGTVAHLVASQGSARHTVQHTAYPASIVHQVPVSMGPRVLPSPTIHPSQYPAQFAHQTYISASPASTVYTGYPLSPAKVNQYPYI
Procedure, shortened: as §1

TRKC = biological target: T29, TRKC (Homo sapiens, UniProt Q16288); details: 1 uM
T29 construct: purchased Ambit KINOMEscan (DiscoverX)
Procedure, shortened: as §1

ASK2 = biological target: T30, ASK2 (Homo sapiens, UniProt O95382); details: ASK2, 1 uM
T30 construct: purchased Ambit KINOMEscan (DiscoverX)
Procedure, shortened: as §1

ERK3 = biological target: T31, ERK3 (Homo sapiens, UniProt Q16659); details: ERK3, 1 uM
T31 construct: purchased Ambit KINOMEscan (DiscoverX)
Procedure, shortened: as §1

EGFR = biological target: T32, EGFR (Homo sapiens, UniProt P00533); details: 1 uM
T32 construct: purchased Ambit KINOMEscan (DiscoverX)
Procedure, shortened: as §1

EPHB3 = biological target: T33, EPHB3 (Homo sapiens, UniProt P54753); details: EPHB3, 1 uM
T33 construct: purchased Ambit KINOMEscan (DiscoverX)
Procedure, shortened: as §1

ERN1 = biological target: T34, ERN1 (Homo sapiens, UniProt O75460); details: ERN1, 1 uM
T34 construct: purchased Ambit KINOMEscan (DiscoverX)
Procedure, shortened: as §1

CSNK1A1 = biological target: T35, CSNK1A1 (Homo sapiens, UniProt P48729); details: CSNK1A1, 1 uM
T35 construct: purchased Ambit KINOMEscan (DiscoverX)
Procedure, shortened: as §1

NDR2 = biological target: T36, NDR2 (Homo sapiens, UniProt Q9Y2H1); details: NDR2, 1 uM
T36 construct: purchased Ambit KINOMEscan (DiscoverX)
T36 sequence (Q9Y2H1 whole entry): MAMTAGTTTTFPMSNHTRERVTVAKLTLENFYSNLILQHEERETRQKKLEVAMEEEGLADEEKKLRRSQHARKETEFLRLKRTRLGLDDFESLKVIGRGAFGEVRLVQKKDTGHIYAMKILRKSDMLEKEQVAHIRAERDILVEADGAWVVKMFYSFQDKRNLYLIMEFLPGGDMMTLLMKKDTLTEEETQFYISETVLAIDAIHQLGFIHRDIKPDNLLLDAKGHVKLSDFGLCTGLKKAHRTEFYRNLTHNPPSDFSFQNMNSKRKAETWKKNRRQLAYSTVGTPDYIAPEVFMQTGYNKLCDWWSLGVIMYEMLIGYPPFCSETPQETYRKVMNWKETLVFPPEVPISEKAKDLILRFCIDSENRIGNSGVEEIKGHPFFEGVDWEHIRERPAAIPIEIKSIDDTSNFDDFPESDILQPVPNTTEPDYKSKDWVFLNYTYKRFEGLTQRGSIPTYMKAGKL
Procedure, shortened: as §1

MARK3 = biological target: T37, MARK3 (Homo sapiens, UniProt P27448); details: MARK3, 1 uM
T37 construct: purchased Ambit KINOMEscan (DiscoverX)
T37 sequence (P27448 whole entry): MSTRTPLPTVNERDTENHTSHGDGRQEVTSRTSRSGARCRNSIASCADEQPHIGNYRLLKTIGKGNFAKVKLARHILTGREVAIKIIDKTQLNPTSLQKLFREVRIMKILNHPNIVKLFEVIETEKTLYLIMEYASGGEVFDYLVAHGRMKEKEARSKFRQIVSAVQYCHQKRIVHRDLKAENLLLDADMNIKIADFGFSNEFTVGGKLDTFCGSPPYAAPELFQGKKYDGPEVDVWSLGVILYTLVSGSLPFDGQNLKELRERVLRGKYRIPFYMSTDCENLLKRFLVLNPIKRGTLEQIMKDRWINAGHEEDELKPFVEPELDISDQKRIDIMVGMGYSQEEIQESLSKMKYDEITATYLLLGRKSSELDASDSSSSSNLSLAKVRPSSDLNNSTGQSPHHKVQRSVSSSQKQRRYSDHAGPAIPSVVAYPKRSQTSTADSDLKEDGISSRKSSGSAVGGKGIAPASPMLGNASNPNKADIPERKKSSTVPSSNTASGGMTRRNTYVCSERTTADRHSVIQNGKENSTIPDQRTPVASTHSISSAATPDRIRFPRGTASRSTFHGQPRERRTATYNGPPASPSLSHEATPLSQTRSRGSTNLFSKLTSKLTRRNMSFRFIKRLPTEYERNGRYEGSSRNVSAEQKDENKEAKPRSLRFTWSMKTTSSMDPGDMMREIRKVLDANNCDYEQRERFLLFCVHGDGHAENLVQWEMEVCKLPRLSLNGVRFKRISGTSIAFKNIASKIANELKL
Procedure, shortened: as §1

IKK-alpha = biological target: T38, IKK-alpha (Homo sapiens, UniProt O15111); details: 1 uM
T38 construct: purchased Ambit KINOMEscan (DiscoverX)
Procedure, shortened: as §1

PCTK2 = biological target: T39, PCTK2 (Homo sapiens, UniProt Q00537); details: PCTK2, 1 uM
T39 construct: purchased Ambit KINOMEscan (DiscoverX)
Procedure, shortened: as §1

PIK3CD = biological target: T40, PIK3CD (Homo sapiens, UniProt O00329); details: 1 uM
T40 construct: purchased Ambit KINOMEscan (DiscoverX)
Procedure, shortened: as §1

EPHA1 = biological target: T41, EPHA1 (Homo sapiens, UniProt P21709); details: EPHA1, 1 uM
T41 construct: purchased Ambit KINOMEscan (DiscoverX)
T41 sequence (P21709 26-976): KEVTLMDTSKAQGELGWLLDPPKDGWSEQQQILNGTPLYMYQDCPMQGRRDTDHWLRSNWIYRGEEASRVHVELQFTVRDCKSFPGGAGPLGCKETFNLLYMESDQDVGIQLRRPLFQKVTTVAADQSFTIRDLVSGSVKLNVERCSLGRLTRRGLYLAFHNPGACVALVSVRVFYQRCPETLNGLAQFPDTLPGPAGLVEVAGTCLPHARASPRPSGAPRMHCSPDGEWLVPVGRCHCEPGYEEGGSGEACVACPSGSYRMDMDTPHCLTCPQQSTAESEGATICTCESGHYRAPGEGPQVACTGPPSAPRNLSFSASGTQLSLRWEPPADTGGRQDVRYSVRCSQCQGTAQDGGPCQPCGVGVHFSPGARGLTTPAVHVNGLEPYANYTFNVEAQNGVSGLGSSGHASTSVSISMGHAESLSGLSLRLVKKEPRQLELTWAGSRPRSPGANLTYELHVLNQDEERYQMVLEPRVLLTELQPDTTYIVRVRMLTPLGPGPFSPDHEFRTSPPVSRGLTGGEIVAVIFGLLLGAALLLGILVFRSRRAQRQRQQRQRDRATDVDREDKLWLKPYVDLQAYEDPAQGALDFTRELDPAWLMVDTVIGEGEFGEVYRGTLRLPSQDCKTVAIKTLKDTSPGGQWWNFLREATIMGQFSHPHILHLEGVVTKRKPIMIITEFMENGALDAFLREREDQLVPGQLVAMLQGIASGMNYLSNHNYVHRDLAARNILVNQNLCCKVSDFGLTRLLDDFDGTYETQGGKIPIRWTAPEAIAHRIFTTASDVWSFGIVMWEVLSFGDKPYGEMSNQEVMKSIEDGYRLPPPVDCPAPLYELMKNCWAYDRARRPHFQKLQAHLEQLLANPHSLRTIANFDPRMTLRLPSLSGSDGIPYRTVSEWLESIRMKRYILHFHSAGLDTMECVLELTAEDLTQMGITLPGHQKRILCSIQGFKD
Procedure, shortened: as §1

## COc1ccccc1Nc1nc(-c2ccc(OC)c(OC)c2)cc2nccn12 [BAY derivative 6]
PRKD3
  % binding compared to no inhibitor control: 100%
PRKR
  % binding compared to no inhibitor control: 100%
MST3
  % binding compared to no inhibitor control: 100%
MRCKA
  % binding compared to no inhibitor control: 79%
KIT
  % binding compared to no inhibitor control: 60%
MET
  % binding compared to no inhibitor control: 100%
PCTK1
  % binding compared to no inhibitor control: 100%
DAPK3
  % binding compared to no inhibitor control: 100%
CAMK1D
  % binding compared to no inhibitor control: 100%
SLK
  % binding compared to no inhibitor control: 28%
CIT
  % binding compared to no inhibitor control: 95%
CAMKK1
  % binding compared to no inhibitor control: 100%
PIK3CA(E542K)
  % binding compared to no inhibitor control: 100%
TEC
  % binding compared to no inhibitor control: 100%
PKAC-beta
  % binding compared to no inhibitor control: 95%
HUNK
  % binding compared to no inhibitor control: 75%
ALK
  % binding compared to no inhibitor control: 52%
EPHB1
  % binding compared to no inhibitor control: 100%
SRPK2
  % binding compared to no inhibitor control: 90%
STK35
  % binding compared to no inhibitor control: 91%
CSNK1G2
  % binding compared to no inhibitor control: 100%
TAOK1
  % binding compared to no inhibitor control: 100%
ERK2
  % binding compared to no inhibitor control: 70%
ACVR2B
  % binding compared to no inhibitor control: 100%
RIPK2
  % binding compared to no inhibitor control: 100%
AURKB
  % binding compared to no inhibitor control: 68%
ARK5
  % binding compared to no inhibitor control: 93%
HIPK2
  % binding compared to no inhibitor control: 100%
TRKC
  % binding compared to no inhibitor control: 98%
ASK2
  % binding compared to no inhibitor control: 100%
ERK3
  % binding compared to no inhibitor control: 88%
EGFR
  % binding compared to no inhibitor control: 100%
EPHB3
  % binding compared to no inhibitor control: 84%
ERN1
  % binding compared to no inhibitor control: 100%
CSNK1A1
  % binding compared to no inhibitor control: 100%
NDR2
  % binding compared to no inhibitor control: 93%
MARK3
  % binding compared to no inhibitor control: 100%
IKK-alpha
  % binding compared to no inhibitor control: 100%
PCTK2
  % binding compared to no inhibitor control: 100%
PIK3CD
  % binding compared to no inhibitor control: 100%
EPHA1
  % binding compared to no inhibitor control: 81%

## COc1ccc(-c2cc3nccn3c(Nc3ncccc3C(N)=O)n2)cc1OC.Cl.Cl [BAY61-3606, 2-[7-(3,4-dimethoxyphenyl)-imidazo [1,2-c]pyrimidin-5-ylamino] nicotinamide dihydrochloride, reference compound]
PRKD3
  % binding compared to no inhibitor control: 37%
PRKR
  % binding compared to no inhibitor control: 27%
MST3
  % binding compared to no inhibitor control: 56%
MRCKA
  % binding compared to no inhibitor control: 83%
KIT
  % binding compared to no inhibitor control: 8.4%
MET
  % binding compared to no inhibitor control: 100%
PCTK1
  % binding compared to no inhibitor control: 86%
DAPK3
  % binding compared to no inhibitor control: 71%
CAMK1D
  % binding compared to no inhibitor control: 72%
SLK
  % binding compared to no inhibitor control: 58%
CIT
  % binding compared to no inhibitor control: 0.4%
CAMKK1
  % binding compared to no inhibitor control: 48%
PIK3CA(E542K)
  % binding compared to no inhibitor control: 99%
TEC
  % binding compared to no inhibitor control: 100%
PKAC-beta
  % binding compared to no inhibitor control: 76%
HUNK
  % binding compared to no inhibitor control: 67%
ALK
  % binding compared to no inhibitor control: 84%
EPHB1
  % binding compared to no inhibitor control: 90%
SRPK2
  % binding compared to no inhibitor control: 53%
STK35
  % binding compared to no inhibitor control: 88%
CSNK1G2
  % binding compared to no inhibitor control: 100%
TAOK1
  % binding compared to no inhibitor control: 95%
ERK2
  % binding compared to no inhibitor control: 68%
ACVR2B
  % binding compared to no inhibitor control: 77%
RIPK2
  % binding compared to no inhibitor control: 70%
AURKB
  % binding compared to no inhibitor control: 69%
ARK5
  % binding compared to no inhibitor control: 62%
HIPK2
  % binding compared to no inhibitor control: 9%
HIPK2; HIPK2, KINOMEscan, 1 μM
  % inhibition ATP binding: 91%
TRKC
  % binding compared to no inhibitor control: 92%
ASK2
  % binding compared to no inhibitor control: 81%
ERK3
  % binding compared to no inhibitor control: 73%
EGFR
  % binding compared to no inhibitor control: 87%
EPHB3
  % binding compared to no inhibitor control: 98%
ERN1
  % binding compared to no inhibitor control: 72%
CSNK1A1
  % binding compared to no inhibitor control: 100%
NDR2
  % binding compared to no inhibitor control: 68%
MARK3
  % binding compared to no inhibitor control: 100%
IKK-alpha
  % binding compared to no inhibitor control: 0.25%
PCTK2
  % binding compared to no inhibitor control: 100%
PIK3CD
  % binding compared to no inhibitor control: 81%
EPHA1
  % binding compared to no inhibitor control: 81%
